Measurements reported in patent US20160274087A1, “SCREENING ASSAY FOR AGENTS THAT INFLUENCE BETA CELL NUMBER AND/OR PHENOTYPE” (VRIJE UNIVERSITEIT BRUSSEL, priority 2013, published 2016).

Legend:
rat beta cells [1] = experiment: Beta cell DNA synthesis/proliferation by EdU (and BrdU) incorporation, incl. LOPAC screen; format: cell-based; conditions: for Percent EdU+ cells / Z-Score: LOPAC screen at 1 μM, adult rat beta cells, EdU day 3 to 6; for Percent EdU+ cells: control medium 5.6; for Z-Score: hit cut-off three standard deviations
Description: (§1) On day 1, 9 and 15 of culture, total numbers of living beta cells per well were determined by semi-automatic cell count, after Hoechst 33342 (Ho) and propidium iodide (PI) staining. Numbers of living beta cells were obtained by subtracting the PI-positive cell numbers from the Ho-positive cell numbers, and correcting for the percent insulin-negative cells, as determined following insulin-immunofluorescence staining. They were expressed as percent of the numbers on day 1. Each condition was also evaluated for increases in the percentage of proliferating beta cells (incorporating the thymidine-analogue 5-ethynyl-2′-deoxyuridine, EdU; 100 μmol/l). To detect beta cells that underwent two successive cycles, cells were sequentially exposed to two different thymidine-analogs, first EdU from day 3 to 6, and then BrdU (100 μmol/l) from day 7 to 10, with a 24-hour label-free period in between. EdU-positive (EdU^+) nuclei were detected with the Click-iT Assay kit (Invitrogen), while BrdU-positive (BrdU^+) nuclei were identified with anti-BrdU antibody.
Freshly purified beta cells were cultured in control medium for 24 h prior to the addition of the LOPAC test compounds (day 1). The culture medium was refreshed on day 3 and the cells were then cultured further with 5-ethynyl-2′-deoxyuridine (EdU; 10 μM) up to day 6. Cell viability and percentage EdU incorporation were quantified after imaging and image analysis using the BD Pathway Bioimager, as described before (Assefa et al., 2014). To test the significance of compound effect on beta cell proliferation, average Z-score for each compound was calculated and a cut-off for potential positive hits was set at a Z-score of greater than three standard deviations. Thus, a compound is considered a hit only if it increases the percent EdU incorporation to above three standard deviation of the plate-averaged percent EdU incorporation.
(§2) Sorted beta cells were seeded in 384-well or 6-well plates coated with 804G matrix, and kept in culture for up to 15 days at 37° C. 5% CO2 using Ham F10 supplemented with 1 mM L-glutamine, 0.1 mg/ml streptomycin, 0.075 mg/ml penicillin, 50 μM of isobutyl-1-methylxanthine (IBMX) at 10 mM D-glucose with and without synthetic GCs (6 methyl-prednisolone (6MP), dexamethasone (DEX), GR-modulators (compound A (CPA), mifepristone (MIF), and NFκB inhibitors (JSH-23 en Bay11-7085). Total cell number and beta cell viability was evaluated after incubation with Hoechst 33342 and propidium iodide. All chemicals were from Sigma Life Sciences or Merck. Quantification of cell numbers and analysis of beta-cell viability was done using the Pathway Bioimager (BD Biosciences) and using IPlab and Attovision software for background subtraction as described prior (Assefa et al., 2014). Replicating beta cells were quantified after 24 or 72 hrs incubation with 5-ethynyl-2′-deoxyuridine (EdU, a thymidine analog) using the ClickIT EDU Alexa Fluor assay (Invitrogen). EdU-positive cells were expressed as percentage of total cell number.

rat beta cells [2] = experiment: Number of living beta cells in culture (Hoechst 33342/propidium iodide whole-well imaging counts; expansion assay); format: cell-based
Description: (§3) Beta cells were FACS-purified from islet-cell enriched suspensions (Pipeleers et al., 1985) prepared from neonatal (2-3 days-old) and adolescent or adult (8 or 40-week-old, male) Wistar rats (Janvier Bioservices, France); their purity was, respectively 70-75% and over 90%. Sorted cells were counted in a hemocytometer, seeded (day 0) and cultured for up to 15 days in serum-free Ham's-F10 medium at 5, 10 or 20 mmol/l glucose, supplemented with 2 mmol/l L-glutamine, 50 μM 3-isobutyl-1-methylxanthine, 0.5% Albumax-I, penicillin (100 U/ml) and streptomycin (0.1 mg/ml). The 10 mmol/l glucose condition is known to maintain beta cell survival over 9-days (Ling et al., 1994; Ling and Pipeleers, 1994). Medium and cells were retrieved after selected culture periods and assayed for insulin content; data were expressed as a function of the number of living beta cells that was determined in parallel wells.
as §1
(§4) Absolute number of cells was determined by whole-well imaging using the BD-PathwayBioimager855 (BD-Biosciences). IPLab and AttoVision software packages (BD-Biosciences) were used for image background subtraction, segmentation and quantification.
Experimental procedures for isolation of beta cells from neonatal (2-3 days old) and adult (8 or 40 week old, male) Wistar rats (Janvier Bioservices, France) and analysis of their number, viability and proliferation activity in culture have been described before (Assefa et al., 2014). Sorted beta cells were seeded in 804G matrix-coated plates (designated as day 0) and the numbers and viability of seeded cells at the start of all experiments were determined on day 1 (24 h after seeding). The cells were cultured in control medium, which is a serum-free Ham's F10 medium supplemented with 2 mM L-glutamine, 50 μM 3-isobutyl-1-methylxanthine, 0.5% Albumax I, penicillin (100 U/ml), streptomycin (0.1 mg/ml) and, unless indicated otherwise, 10 mM glucose.
as §2, with “2014).” for “2014). Replicating beta cells were quantified after 24 or 72 hrs incubation with 5-ethynyl-2′-deoxyuridine (EdU, a thymidine analog) using the ClickIT EDU Alexa Fluor assay (Invitrogen). EdU-positive cells were expressed as percentage of total cell number.”

[3] = tested on: GR trans-repression and trans-activation targets, cell cycle genes and beta cell phenotype markers; experiment: Q-PCR of mRNA levels in cultured beta cells; format: cell-based, rat; conditions: 9 days culture; 1 μM 6MP, 1 μM MIF, 0.5 μM CPA; vehicle = 1.0
rat beta cells [4] = experiment: Cellular insulin content, insulin release and glucose-stimulated insulin secretion of cultured beta cells; format: cell-based
Description: as §3

rat beta cells [5] = experiment: Beta cell viability / cell death (propidium iodide assay); format: cell-based; conditions: for Percent viable cells: LOPAC screen at 1 μM, adult rat beta cells, day 6, control medium 97
From the text: as §1, with “Numbers” for “On day 1, 9 and 15 of culture, total numbers of living beta cells per well were determined by semi-automatic cell count, after Hoechst 33342 (Ho) and propidium iodide (PI) staining. Numbers”, “Each condition was also evaluated for increases in the percentage of proliferating beta cells (incorporating the thymidine-analogue 5-ethynyl-2′-deoxyuridine, EdU; 100 μmol/l).” left out
as §4
Freshly purified beta cells were cultured in control medium for 24 h prior to the addition of the LOPAC test compounds (day 1). The culture medium was refreshed on day 3 and the cells were then cultured further with 5-ethynyl-2′-deoxyuridine (EdU; 10 μM) up to day 6. […] Thus, a compound is considered a hit only if it increases the percent EdU incorporation to above three standard deviation of the plate-averaged percent EdU incorporation.

## C[C@H]1C[C@@H]2[C@H]([C@@H](O)C[C@@]3(C)[C@H]2CC[C@]3(O)C(=O)CO)[C@@]2(C)C=CC(=O)C=C12 [6MP, 6-methylprednisolone]
Rat beta cells [1]; survival and proliferation of rat beta cells, data not shown
  final concentration of optimal potency (dose-response studies): 1000 nM
Rat beta cells [2]; 10 mM glucose and MP
  cells after 15-day culture compared to day 1 numbers: 152±5%
Rat beta cells [2]; 6MP 1 μM, DEX 0.01 μM, CPA 0.5 μM
  change of beta cell numbers between day 1 and 15: nearly double
Rat beta cells [2]; two-weeks culture
  increase in absolute number of living beta cells in culture: near population doubling
[3]
  CDK4 mRNA level (ΔΔCt values relative to basal vehicle control): 1.7 ± 0.2^2
  CXCL11 mRNA level (ΔΔCt values relative to basal vehicle control): 0.1 ± 0.0^3
  Cyclin B1 mRNA level (ΔΔCt values relative to basal vehicle control): 4.7 ± 0.7^3
  Cyclin B2 mRNA level (ΔΔCt values relative to basal vehicle control): 4.8 ± 0.8^3
  Cyclin E1 mRNA level (ΔΔCt values relative to basal vehicle control): 2.3 ± 0.3^3
  CyclinD1 mRNA level (ΔΔCt values relative to basal vehicle control): 0.8 ± 0.1^
  DLK1 mRNA level (ΔΔCt values relative to basal vehicle control): 24491 ± 5157^3
  FKBP4 mRNA level (ΔΔCt values relative to basal vehicle control): 1.2 ± 0.1^
  FKBP5 mRNA level (ΔΔCt values relative to basal vehicle control): 15.4 ± 2.2^3
  GDF11 mRNA level (ΔΔCt values relative to basal vehicle control): 3.8 ± 1.0^3
  ICAM1 mRNA level (ΔΔCt values relative to basal vehicle control): 0.1 ± 0.1^3
  MKP1 mRNA level (ΔΔCt values relative to basal vehicle control): 20.7 ± 4.2^3
  MafA mRNA level (ΔΔCt values relative to basal vehicle control): 0.2 ± 0.1^3
  MafB mRNA level (ΔΔCt values relative to basal vehicle control): 5.1 ± 0.9^3
  NNAT mRNA level (ΔΔCt values relative to basal vehicle control): 7.4 ± 1.8^3
  NPY mRNA level (ΔΔCt values relative to basal vehicle control): 3.8 ± 0.6^3
  NR3C1 mRNA level (ΔΔCt values relative to basal vehicle control): 1.0 ± 0.1^
  Pdx1 mRNA level (ΔΔCt values relative to basal vehicle control): 0.5 ± 0.2^3
  TRH mRNA level (ΔΔCt values relative to basal vehicle control): 5.3 ± 0.5^3
Rat beta cells [4]; 9 days, 6MP followed by 6 days, basal
  Insulin Release during last 72 h of culture: 1.6 ± 1 ng/10^3 cells/h
Rat beta cells [4]; 9 days, 6MP followed by 6 days, basal, 2.5 mM glucose
  glucose-induced insulin secretion, Day 15: 24.4 ± 3.3 % of content/h
Rat beta cells [4]; 9 days, 6MP followed by 6 days, basal, 5 mM glucose
  glucose-induced insulin secretion, Day 15: 34.3 ± 3.9 % of content/h
Rat beta cells [4]; 9 days, 6MP followed by 6 days, basal, 10 mM glucose
  glucose-induced insulin secretion, Day 15: 46.8 ± 7.7 % of content/h
Rat beta cells [4]; 9 days, 6MP followed by 6 days, basal, 20 mM glucose
  glucose-induced insulin secretion, Day 15: 52.1 ± 1.8 % of content/h
Rat beta cells [4]; 15 days, 6MP
  Insulin Release during last 72 h of culture: 0.9 ± 0.1 ng/10^3 cells/h
Rat beta cells [4]; 15 days, 6MP, 2.5 mM glucose
  glucose-induced insulin secretion, Day 15: 35.3 ± 7.4 % of content/h
Rat beta cells [4]; 15 days, 6MP, 5 mM glucose
  glucose-induced insulin secretion, Day 15: 37.7 ± 4.0 % of content/h
Rat beta cells [4]; 15 days, 6MP, 10 mM glucose
  glucose-induced insulin secretion, Day 15: 43.2 ± 6.8 % of content/h
Rat beta cells [4]; 15 days, 6MP, 20 mM glucose
  glucose-induced insulin secretion, Day 15: 44.0 ± 4.8 % of content/h

## C[C@H]1C[C@H]2[C@@H]3CCC4=CC(=O)C=C[C@]4(C)[C@@]3(Cl)[C@@H](O)C[C@]2(C)[C@@]1(O)C(=O)CO [Beclomethasone]
Rat beta cells [1]
  Percent EdU+ cells: 20.6%
  Z-Score: 5.9
Rat beta cells [5]
  Percent viable cells: 96%

## C[C@H]1C[C@H]2[C@@H]3CCC4=CC(=O)C=C[C@]4(C)[C@@]3(F)[C@@H](O)C[C@]2(C)[C@@]1(O)C(=O)CO [Betamethasone]
Rat beta cells [1]
  Percent EdU+ cells: 21.1%
  Z-Score: 5.5
Rat beta cells [5]
  Percent viable cells: 95%

## CCCC1O[C@@H]2C[C@H]3[C@@H]4CCC5=CC(=O)C=C[C@]5(C)[C@H]4[C@@H](O)C[C@]3(C)[C@]2(C(=O)CO)O1 (stereo partly shown) [Budesonide]
Rat beta cells [1]
  Percent EdU+ cells: 24.9%
  Z-Score: 4.1
Rat beta cells [5]
  Percent viable cells: 97%

## C[C@]12CCC(=O)C=C1CC[C@@H]1[C@@H]2CC[C@@]2(C)[C@H]1CC[C@]2(O)C(=O)CO [Cortexolone]
Rat beta cells [1]
  Percent EdU+ cells: 13.1%
  Z-Score: 4.1
Rat beta cells [5]
  Percent viable cells: 97%

## CS(=O)(=O)c1ccc([C@@H](CC2CCCC2)C(=O)Nc2nccs2)cc1 [GKA, RO-28-1675]
Rat beta cells [5]; 10 mM glucose, irrespective of MP, data not shown
  effect of 15-day continuous treatment on beta cell survival: induces cytotoxicity and a net cell loss
Rat beta cells [5]; GKA 3 μm, beta cells from 8- and 40-week old rats, 5 mmol/l glucose, data not shown
  marked cytotoxicity at day 15: not observed
Rat beta cells [5]; GKA 3 μm, neonatal beta cells, 5 mmol/l glucose
  dead cells at day 15 (cytotoxicity): > 50%

## C[C@@H]1C[C@@H]([C@H](O)CC2CC(=O)NC(=O)C2)C(=O)[C@@H](C)C1 [cycloheximide]
Rat beta cells [5]; within 48 h, purified rat beta cells
  number of dead cells (induction of apoptosis): dose-dependent increase in the number of dead cells
